From patent EP3811940B1, “SUBSTITUTED 4,5'-BITHIAZOLES AS INHIBITORS OF THE HUMAN DNA TOPOISOMERASE II” (Kemijski Institut, priority 2019, dated 2021)
Values joined by “and” are separate entries in the source; they are usually repeats but may differ in a detail not shown here. Equal entries are not always repeated.

How the values were obtained:
human topo IIα = molecular target: T1, human topo IIα (Homo sapiens, UniProt P11388); assay: competitive ATPase assay at different ATP concentrations; assay type: biochemical
T1 construct: purchased Inspiralis (Norwich, UK)
T1 sequence (P11388 whole entry): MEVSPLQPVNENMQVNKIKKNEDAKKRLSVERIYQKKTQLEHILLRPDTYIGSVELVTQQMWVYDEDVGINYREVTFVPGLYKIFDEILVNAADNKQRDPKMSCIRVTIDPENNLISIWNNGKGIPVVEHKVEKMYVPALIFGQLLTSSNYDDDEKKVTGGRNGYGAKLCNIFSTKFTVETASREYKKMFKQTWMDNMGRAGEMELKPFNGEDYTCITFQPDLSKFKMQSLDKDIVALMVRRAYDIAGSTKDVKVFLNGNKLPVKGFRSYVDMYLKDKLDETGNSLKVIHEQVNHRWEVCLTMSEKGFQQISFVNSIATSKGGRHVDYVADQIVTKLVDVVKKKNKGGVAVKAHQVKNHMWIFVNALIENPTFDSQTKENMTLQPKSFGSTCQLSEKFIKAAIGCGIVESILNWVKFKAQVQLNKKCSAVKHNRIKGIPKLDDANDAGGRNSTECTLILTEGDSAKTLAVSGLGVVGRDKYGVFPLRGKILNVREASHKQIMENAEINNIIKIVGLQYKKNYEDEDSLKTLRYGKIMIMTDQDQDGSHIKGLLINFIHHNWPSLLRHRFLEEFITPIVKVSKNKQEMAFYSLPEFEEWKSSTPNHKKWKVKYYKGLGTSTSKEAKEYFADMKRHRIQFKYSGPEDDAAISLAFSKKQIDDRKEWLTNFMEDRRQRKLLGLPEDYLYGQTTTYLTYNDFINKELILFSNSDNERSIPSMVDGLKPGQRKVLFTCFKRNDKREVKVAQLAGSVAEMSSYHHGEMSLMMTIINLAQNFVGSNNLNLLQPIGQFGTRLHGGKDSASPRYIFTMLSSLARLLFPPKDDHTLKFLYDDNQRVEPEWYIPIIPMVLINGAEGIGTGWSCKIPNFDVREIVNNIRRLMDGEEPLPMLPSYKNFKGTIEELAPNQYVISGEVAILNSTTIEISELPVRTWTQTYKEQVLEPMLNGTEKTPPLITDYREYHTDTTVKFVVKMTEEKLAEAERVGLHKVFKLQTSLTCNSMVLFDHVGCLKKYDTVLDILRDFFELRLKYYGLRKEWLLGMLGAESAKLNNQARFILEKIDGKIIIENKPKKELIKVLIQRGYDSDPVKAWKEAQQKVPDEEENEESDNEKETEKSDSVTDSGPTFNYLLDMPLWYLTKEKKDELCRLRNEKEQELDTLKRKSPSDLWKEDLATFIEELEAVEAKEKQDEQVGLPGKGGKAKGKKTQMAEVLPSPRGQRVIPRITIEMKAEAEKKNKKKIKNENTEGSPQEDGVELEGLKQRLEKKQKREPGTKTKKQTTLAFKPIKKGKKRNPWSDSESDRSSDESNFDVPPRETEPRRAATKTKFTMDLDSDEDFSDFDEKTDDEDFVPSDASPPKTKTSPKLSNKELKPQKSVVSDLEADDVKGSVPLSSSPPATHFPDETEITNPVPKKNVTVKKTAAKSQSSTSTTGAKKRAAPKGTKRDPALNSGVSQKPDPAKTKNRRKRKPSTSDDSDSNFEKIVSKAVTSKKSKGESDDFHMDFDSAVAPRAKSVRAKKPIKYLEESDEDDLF
Method: Then, we performed the competitive ATPase assay for compound 1, to investigate how our class of compounds affects the ATP hydrolysis in dependence of ATP concentration. Assay was performed at 8 different concentrations of ATP and compound 1. […] The assay was carried out in two parallels. […] In addition, we also calculated the IC50 values of compound 1 vs. different concentrations of the ATP.
Compound were analyzed using a linked ATPase assay in which the ADP produced by the hydrolysis of ATP leads to the conversion of NADH to NAD by a pyruvate kinase/lactate dehydrogenase mix. The disappearance of NADH was monitored at 340 nm. A mix of the assay buffer (5 µL of 10X buffer per assay: final conc. 20 mM Tris-HCl, 5 mM magnesium acetate, 125 mM potassium acetate, 2 mM DTT, pH 7.9), linear pBR322 (1.5 µL of 1mg/mL per assay), phosphoenol pyruvate (0.5 µL of 80 mM per assay), pyruvate kinase/lactate dehydrogenase mix (0.75 µL per assay), NADH (1 µL of 20 mM per assay), DMSO (1.5 µL per assay), and water (32.85 µL per assay) was made. 41.1 µL of this mixture was aliquoted into the wells of a 384-well microtiter plate. 0.5 µL of DMSO or the investigated compound were added to the wells and mixed. 5 µL of the dilution buffer or human topo IIα (200 nM stock giving the 12 nM final concentration) were then added and mixed. A pre-run was done before the run was started by adding 3.4 µL of the appropriate concentration of ATP and the OD340 monitored for up to 35 minutes. Assays were performed at 37 °C. Two negative controls (4 % DMSO and dilution buffer without enzyme) were run in the presence of 2 mM ATP. This assay was performed at 8 different concentrations of the ATP (0.025, 0.05, 0.075, 0.1, 0.25, 0.5, 0.75 and 1 mM). Assays were performed at 3.9, 31, 50, 75 and 100 µM final concentrations of the investigated compound 1. The final DMSO concentration in all the reactions was 4 % (v/v). Assay was performed in duplicate. The human topo competitive ATPase assay was performed in collaboration with Inspiralis (Norwich, UK).

HepG2 cells [1] = assay: cell cycle analysis by flow cytometry (Hoechst 33342); assay type: cell-based, human; details: 24h, mean ± SD of 3; for S phase, percent of HepG2 cells: listed as head printed "5" in Table 7
Method: (§1) Figure 4. Cell cycle analysis, cell proliferation and induction of the DNA double stand breaks (DBS) by the selected substituted 4,5'-bithiazole compound 1. (A) Percent of HepG2 cells in certain phases of cell cycle after 24h treatment to compound 1 at 50 µM and 10 µM in comparison with the solvent control (0). […] (B) Percent of proliferative cells after 24h treatment to compound 1 at 50 µM and 10 µM determined with the Ki67 antibody. (C) Results of the analyses of the induction of the DNA double strand breaks by γ-H2AX assay. Distribution of the fluorescent signals of individual cells in the samples is shown. Data are presented as quantile box plots. The edges of the box represent the 25th and 75th percentiles, the median is a solid line through the box, and the bars represent 95% confidence intervals. In each sample, 10^4 events were recorded, and experiments were repeated three times independently. Significant difference between treated cells and the solvent control (0) is indicated by * p < 0.05, ** p < 0.01 and *** p < 0.001.
(§2) After the exposure floating and adherent cells were collected by trypsinization. For the fixation the cells were centrifuged at 800 rpm, 4°C for 5 min, washed twice with ice cold PBS, resuspended in 0.5 mL cold PBS and ethanol (1.5 mL) was added drop wise into the cell pellet, while vortexing. The cells were fixed at 4°C overnight and stored at -20°C until analysis. Fixed cells were centrifuged at 1200 rpm for 10 min, washed with ice cold 1× PBS and labelled with Anti-H2AX pS139 antibodies (50-fold diluted) for DNA DBS analysis, Ki67 antibodies (50-fold diluted) for proliferation analysis and Hoechst 33342 dye for cell cycle analysis according to the manufacturer's protocol. Flow cytometric analysis was carried out on a MACSQuant Analyzer 10 (Miltenyi Biotech, Germany). FITC intensity, corresponding to proliferation marker Ki67+, was detected in the FITC-A channel and cell cycle analysis was detected in VioBlueA channel. APC intensity, corresponding to DSBs, was detected in the APC-A channel. Unspecific binding was checked with rea-FITC and rea-APC antibodies (Miltenyi Biotec, Germany). In each sample, 10 000 events were recorded. Independent experiments were repeated three times. […] For further analysis the raw data was exported from MACSQuantify software and it was converted to. fcs format and further to the .csv format. For the yH2AX foci analysis the statistical significance between treated groups and the vehicle control was determined with a linear mixed-effects model. Calculations were done with the statistical program R [49] and its packages reshape and nlme.

HepG2 cells [2] = assay: γ-H2AX assay, induction of DNA double strand breaks; assay type: cell-based, human; details: 24h, result in words
Method: as §1, with “The edges of the box represent the 25th and 75th percentiles, the median is a solid line through the box, and the bars represent 95% confidence intervals.” left out, “Significant difference between treated cells and the solvent control (0) is indicated by * p < 0.05, ** p < 0.01 and *** p < 0.001.” left out
After the exposure floating and adherent cells were collected by trypsinization. […] FITC intensity, corresponding to proliferation marker Ki67+, was detected in the FITC-A channel and cell cycle analysis was detected in VioBlueA channel. APC intensity, corresponding to DSBs, was detected in the APC-A channel. […] In each sample, 10 000 events were recorded. […] For the yH2AX foci analysis the statistical significance between treated groups and the vehicle control was determined with a linear mixed-effects model. […]

HepG2 cells [3] = assay: cell proliferation, Ki-67 marker, flow cytometry; assay type: cell-based, human; details: 24h
Method: as §2, with “For” for “For further analysis the raw data was exported from MACSQuantify software and it was converted to. fcs format and further to the .csv format. For”, “Calculations were done with the statistical program R [49] and its packages reshape and nlme.” left out

Cc1nc(N)sc1-c1csc(Nc2ccc(C(F)(F)F)cc2)n1 [Compound 1, 4'-methyl-N2-(4-(trifluoromethyl)phenyl)-[4,5'-bithiazole]-2,2'-diamine]
IC50 (human topo IIα; c(ATP) 0.025): 3.8 µM
IC50 (human topo IIα; c(ATP) 0.05): 8.8 µM
IC50 (human topo IIα; c(ATP) 0.075): 14.8 µM
IC50 (human topo IIα; c(ATP) 0.1): 9.4 µM
IC50 (human topo IIα; c(ATP) 0.25): 18.3 µM
IC50 (human topo IIα; c(ATP) 0.5): 15.2 µM
IC50 (human topo IIα; c(ATP) 0.75): 17.8 µM
IC50 (human topo IIα; c(ATP) 1): 21.6 µM
IC50 (human topo IIα; c(ATP) 2): 25.4 µM
>G1, G2<, percent of HepG2 cells (HepG2 cells [1]; 10 µM): 1.2 ± 1.0%
G1 phase, percent of HepG2 cells (HepG2 cells [1]; 10 µM): 56.5% and 56.5 ± 6.4%
G2 phase, percent of HepG2 cells (HepG2 cells [1]; 10 µM): 24.8 ± 4.5%
S phase, percent of HepG2 cells (HepG2 cells [1]; 10 µM): 17.5% and 17.5 ± 1.1^∗∗∗ %
>G1, G2<, percent of HepG2 cells (HepG2 cells [1]; 50 µM): 1.4 ± 0.6%
G1 phase, percent of HepG2 cells (HepG2 cells [1]; 50 µM): 60.6% and 60.6 ± 7.0^∗ %
G2 phase, percent of HepG2 cells (HepG2 cells [1]; 50 µM): 26.2 ± 2.5%
S phase, percent of HepG2 cells (HepG2 cells [1]; 50 µM): 17.5% and 11.8 ± 4.5^∗∗ %
DNA DSB formation (HepG2 cells [2]; 10 µM): no increase
DNA DSB formation (HepG2 cells [2]; 50 µM): no increase
Percent of cell proliferation (Ki-67 positive) (HepG2 cells [3]; 10 µM): 88.6%
Percent of cell proliferation (Ki-67 positive) (HepG2 cells [3]; 50 µM): 81.3%
